For assay [1], the system named is MV-4-11. The assay can be described thus: Antiproliferation assay (Assay 7), MV-4-11. It is filed as cell-based. Particulars: CellTiter-Glo, 72 hours, several values per example, listed as 08, read-out: Antiproli MV-4-11 [M] IC50. A digest of the protocol:
(§1)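 Proliferation over 72 h at 37° C was assessed by luminescent cell viability reagent, referenced to a day 0 plate.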
Background: ATP-based viability assays read luminescence as a measure of living cells.

The subject of assay [2] is SUDHL5. The assay can be described thus: Induction of caspase-3/7 activity (Assay 4), SUDHL5. Format: cell-based. Particulars: caspase-3/7 induction, 3 hours, median. In outline:
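DLBCL cells were exposed to compounds for 3 hours at 37 °C, then caspase-3/7 activation was read with Caspase-Glo 3/7 reagent. After subtracting medium-only background, EC50s were derived with fixed C0=1 and the reference compound's maximal induction as plateau.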

Assay [3] deals with BCL-XL (Homo sapiens (Human), UniProt Q07817). The assay can be described thus: Protein-protein interaction assay BCL-XL/Bad BH3 peptide (BCL-XL assay, TR-FRET). Format: binding. Particulars: His-BCL-XL / Bad BH3 peptide, median. A digest of the protocol:
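His-tagged human BCL-XL (aa 1-212, 1 nM final) was preincubated 10 min at 22 °C with compound (11 concentrations, 0.1 nM–20 μM), then biotinylated Bad BH3 peptide (1 nM) and TR-FRET reagents were added. Incubation: 1 h at 22 °C, then overnight at 4 °C, pH 7 Tris buffer. IC50 from 4-parameter fit of 665/620 ratio.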
(TR-FRET usually uses a lanthanide donor and a delayed reading to cut background.)

Assay [4] concerns HMC-1-8. The assay can be described thus: Antiproliferation assay (Assay 7), HMC-1-8. Format: cell-based. Particulars: 72 h, CellTiter-Glo, several values per example, read-out: Antiproli HMC-1-8 [M] IC50. In outline: as §1

The results in this text go back to US11401278B2, “Macrocyclic indole derivatives” (The Broad Institute, Inc., priority 2017, dated 2022).

A value given as a limit tells only on which side of the number the result lay.

A word on the IC50: it is the concentration that gives 50% inhibition. The EC50 is the concentration needed to bring the measured effect to its halfway point. The low end stands for a more potent agent, the high end for a less potent agent.

Sequence of BCL-XL (Q07817 other isoform, or with tags, fused parts or gaps): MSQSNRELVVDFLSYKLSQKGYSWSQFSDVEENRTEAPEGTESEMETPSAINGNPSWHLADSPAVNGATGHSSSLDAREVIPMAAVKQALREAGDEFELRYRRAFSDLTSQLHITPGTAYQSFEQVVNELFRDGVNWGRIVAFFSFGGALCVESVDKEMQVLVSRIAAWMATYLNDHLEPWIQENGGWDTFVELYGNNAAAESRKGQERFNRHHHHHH

Consider `CCc1c2c(nn1C)CN(C)S(=O)(=O)CCCn1c(C(=O)O)c(CCCOc3cccc4cc(F)ccc34)c3ccc(F)c-2c31` (single isomer, unassigned; enantiomer 1) [Example 8, (+)-3-Ethyl-4-fluoro-7-{3-[(6-fluoronaphthalen-1-yl)oxy]propyl}-2,14-dimethyl-13,13-dioxo-10,11,12,13,14,15-hexahydro-2H-13λ^6-pyrazolo[3′,4′:4,5][1,2,8]thiadiazacycloundecino-[6,7,8-hi]indole-8-carboxylic acid (Enantiomer 1)], for which the IC50 is 1.18e-06 M in assay [1], above 20000 nM in assay [3] and 2.2e-06 M in assay [4]. In addition, the EC50 in assay [2] came out at 580 nM.
